Assay results as given in patent publication US20180140602A1, “COMBINATION OF CHIMERIC ANTIGEN RECEPTOR THERAPY AND AMINO PYRIMIDINE DERIVATIVES” (Novartis AG, priority 2015, published 2018).
Entries after “also recorded” stand apart in the source; their conditions may differ. One block for each molecule: values may come before it.

Columns and labels:
BTK = target: T1, BTK (Homo sapiens, UniProt Q06187); assay: Inhibition of BTK activity in blood (anti-IgM/IL-4 B cell activation, CD69); type: cell-based; details: human whole blood, anti-IgM/IL-4, CD69 on CD19+ cells, 20 hours;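 note: heparinized blood from healthy donors, read by flow cytometry, with inhibition derived from the percentage of CD69-positive cells within the CD19-positive lymphocyte gate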
T1 construct: Whole blood was collected with written consent from healthy volunteers by venipuncture into sodium heparin vials; endogenous in cells; host or cells: B cells in heparinised whole blood of healthy human volunteers
T1 sequence (Q06187 whole entry): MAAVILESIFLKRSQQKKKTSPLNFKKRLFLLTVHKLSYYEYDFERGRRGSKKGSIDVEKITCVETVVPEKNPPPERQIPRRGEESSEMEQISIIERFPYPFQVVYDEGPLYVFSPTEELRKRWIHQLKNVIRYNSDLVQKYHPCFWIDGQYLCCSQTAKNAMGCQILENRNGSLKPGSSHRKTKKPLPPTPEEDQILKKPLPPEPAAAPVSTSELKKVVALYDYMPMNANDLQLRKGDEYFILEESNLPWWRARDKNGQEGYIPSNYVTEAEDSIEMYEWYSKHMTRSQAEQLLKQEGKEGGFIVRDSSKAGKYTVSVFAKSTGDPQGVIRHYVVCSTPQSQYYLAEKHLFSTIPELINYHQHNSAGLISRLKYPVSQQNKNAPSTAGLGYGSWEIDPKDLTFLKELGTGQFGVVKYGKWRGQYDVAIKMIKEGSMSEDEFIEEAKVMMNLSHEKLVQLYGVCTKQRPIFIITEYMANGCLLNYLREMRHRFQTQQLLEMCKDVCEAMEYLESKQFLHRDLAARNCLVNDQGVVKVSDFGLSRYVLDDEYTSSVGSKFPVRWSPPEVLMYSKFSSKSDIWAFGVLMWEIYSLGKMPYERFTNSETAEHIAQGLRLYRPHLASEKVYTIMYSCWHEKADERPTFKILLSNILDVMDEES

CART19 cells [1] = assay: level of circulating CART19 cells under ibrutinib treatment (Example 42); type: in vivo; details: data shown in Example 42
RL cells [2] = assay: MTT assay, sensitivity to ibrutinib; type: cell-based; details: Homo sapiens, read-out: IC50, inhibition of proliferation
Jeko-1 cells [3] = assay: MTT assay, sensitivity to ibrutinib; type: cell-based; details: Homo sapiens; Jeko-1, MTT assay; read-out: IC50, inhibition of proliferation
Mino cells = assay: MTT assay, sensitivity to ibrutinib; type: cell-based; details: Homo sapiens, read-out: IC50, inhibition of proliferation
RL cells [4] = assay: Sensitivity to ibrutinib by reduction of bioluminescence; type: cell-based, human; details: 0.1 nM to 10 μM
Jeko-1 cells [5] = assay: as above; type: cell-based, human; details: 0.1 nM to 10 μM
MCL-RL cells = assay: MCL-RL systemic xenograft model in NSG mice; type: in vivo
ITK = target: T2, ITK (Homo sapiens, UniProt Q08881); assay: ITK phosphorylation (pITK-Y180) in stimulated CART19 cells; type: cell-based
T2 sequence (Q08881 1-620): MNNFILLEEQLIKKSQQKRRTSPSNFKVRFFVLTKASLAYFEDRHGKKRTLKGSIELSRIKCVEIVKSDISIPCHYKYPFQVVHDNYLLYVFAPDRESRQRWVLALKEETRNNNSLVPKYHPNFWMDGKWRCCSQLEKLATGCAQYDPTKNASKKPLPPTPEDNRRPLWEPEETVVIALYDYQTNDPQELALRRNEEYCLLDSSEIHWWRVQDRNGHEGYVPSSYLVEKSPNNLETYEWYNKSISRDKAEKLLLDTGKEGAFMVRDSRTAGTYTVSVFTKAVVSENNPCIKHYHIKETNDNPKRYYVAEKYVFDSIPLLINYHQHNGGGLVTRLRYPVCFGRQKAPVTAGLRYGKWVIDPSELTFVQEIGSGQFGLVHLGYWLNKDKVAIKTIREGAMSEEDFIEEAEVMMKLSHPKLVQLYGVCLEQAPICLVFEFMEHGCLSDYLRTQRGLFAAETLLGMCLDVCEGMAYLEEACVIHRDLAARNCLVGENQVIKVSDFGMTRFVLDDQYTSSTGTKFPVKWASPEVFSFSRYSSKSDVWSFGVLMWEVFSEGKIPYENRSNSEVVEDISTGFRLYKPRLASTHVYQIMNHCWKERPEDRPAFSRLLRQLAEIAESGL
Description: See Dubovsky et al. Blood 122.15(2013):2539-49.

MCL = MCL treated with ibrutinib monotherapy; cited from earlier work
CART19 cells [6] = details: supra-physiologic concentrations
mantle cell lymphoma = details: MCL patients; cited from earlier work
[7] = patients; cited from earlier work

IC50 (BTK): 72 nM
SMILES: C=CC(=O)N1CC[C@H]1COc1c(N)ncnc1-c1cc(F)cc(N2CCc3cc(C4CC4)ccc3C2=O)c1CO [Example 35, (S)-2-(3-(5-((1-Acryloylazetidin-2-yl)methoxy)-6-aminopyrimidin-4-yl)-5-fluoro-2-(hydroxymethyl)phenyl)-6-cyclopropyl-3,4-dihydroisoquinolin-1(2H)-one]

IC50 (BTK): 968 nM
SMILES: C=CC(=O)N1CCC[C@@H](COc2c(N)ncnc2-c2cc(F)cc(NC(=O)c3ccc(C4CC4)cc3F)c2C)C1 [Example 37, (R)—N-(3-(5-((1-Acryloylpiperidin-3-yl)methoxy)-6-aminopyrimidin-4-yl)-5-fluoro-2-methylphenyl)-4-cyclopropyl-2-fluorobenzamide]

IC50 (BTK): 70 nM
SMILES: C=CC(=O)N1CC[C@H](OC)[C@H]1COc1c(N)ncnc1-c1cc(F)cc(NC(=O)c2ccc(C3CC3)cc2F)c1C [Example 38, N-(3-(5-(((2R,3S)-1-Acryloyl-3-methoxypyrrolidin-2-yl)methoxy)-6-aminopyrimidin-4-yl)-5-fluoro-2-methylphenyl)-4-cyclopropyl-2-fluorobenzamide]

IC50 (BTK): 176 nM
SMILES: C=CC(=O)N1C[C@H](C#N)C[C@H]1COc1c(N)ncnc1-c1cc(F)cc(NC(=O)c2ccc(C3CC3)cc2F)c1C [Example 39, N-(3-(5-(((2S,4R)-1-Acryloyl-4-cyanopyrrolidin-2-yl)methoxy)-6-aminopyrimidin-4-yl)-5-fluoro-2-methylphenyl)-4-cyclopropyl-2-fluorobenzamide]

IC50 (BTK): 80 nM
SMILES: C=CC(=O)N1C[C@@H](C#N)C[C@H]1COc1c(N)ncnc1-c1cc(F)cc(NC(=O)c2ccc(C3CC3)cc2F)c1C [Example 40, N-(3-(5-(((2S,4S)-1-Acryloyl-4-cyanopyrrolidin-2-yl)methoxy)-6-aminopyrimidin-4-yl)-5-fluoro-2-methylphenyl)-4-cyclopropyl-2-fluorobenzamide]

SMILES: C=CC(=O)N1CCC[C@@H](n2nc(-c3ccc(Oc4ccccc4)cc3)c3c(N)ncnc32)C1 [ibrutinib, 1-[(3R)-3-[4-Amino-3-(4-phenoxyphenyl)-1H-pyrazolo[3,4-d]pyrimidin-1-yl]piperidin-1-yl]prop-2-en-1-one]
level of circulating CART19 cells (CART19 cells [1]): increases the level of circulating CART19 cells
IC50 (RL cells [2]): 10 nM
IC50 (Jeko-1 cells [3]): ≤ 10000 nM
IC50 (Mino cells): ≤ 10000 nM
sensitivity to ibrutinib (reduction of bioluminescence) (RL cells [4]): sensitive to ibrutinib treatment in a dose-dependent manner
sensitivity to ibrutinib (reduction of bioluminescence) (Jeko-1 cells [5]): resistant to ibrutinib treatment
median overall survival (MCL-RL cells; 25 mg/kg/day): 81 days
median overall survival (MCL-RL cells; 125 mg/kg/day): 100 days
effect on tumor burden / tumor growth (bioluminescence) (MCL-RL cells; MCL-RL engrafted NSG mice): dose-related sensitivity; also recorded: modestly delayed tumor growth at early time points
phosphorylated ITK (pITK-Y180) (ITK; non-specific stimulation via the TCR): reduction in phosphorylated ITK
ITK activation (ITK; specific stimulation via the CAR): did not lead to diminished ITK activation
median duration of response (MCL): about 17.5 months
effect on CART19 cell functions (CART19 cells [6]): inhibition of CART19 cell functions
duration of median response (mantle cell lymphoma): 17.5 months
patients who do not respond (mantle cell lymphoma): about 30%
mean peak concentration in serum [7]: 100 to 150 ng/mL
